Measurements: US6465509B2, “Pyrones as inhibitors of cyclooxygenase-2” (Merck Frosst Canada & Co., priority 2000, dated 2002)

Columns and labels:
COX-2 = biological target: T1, COX-2 (Homo sapiens, UniProt P35354); test: Whole cell assay for COX-2 using CHO[hCOX-2] transfected cell line; assay type: cell-based; design: expressed in transfected cells; host or cells: CHO cells stably transfected with pCDNAIII (CHO[hCOX-2]); conditions: CHO[hCOX-2] cells, PGE2 synthesis, 10 μM AA
T1 sequence (P35354 18-604): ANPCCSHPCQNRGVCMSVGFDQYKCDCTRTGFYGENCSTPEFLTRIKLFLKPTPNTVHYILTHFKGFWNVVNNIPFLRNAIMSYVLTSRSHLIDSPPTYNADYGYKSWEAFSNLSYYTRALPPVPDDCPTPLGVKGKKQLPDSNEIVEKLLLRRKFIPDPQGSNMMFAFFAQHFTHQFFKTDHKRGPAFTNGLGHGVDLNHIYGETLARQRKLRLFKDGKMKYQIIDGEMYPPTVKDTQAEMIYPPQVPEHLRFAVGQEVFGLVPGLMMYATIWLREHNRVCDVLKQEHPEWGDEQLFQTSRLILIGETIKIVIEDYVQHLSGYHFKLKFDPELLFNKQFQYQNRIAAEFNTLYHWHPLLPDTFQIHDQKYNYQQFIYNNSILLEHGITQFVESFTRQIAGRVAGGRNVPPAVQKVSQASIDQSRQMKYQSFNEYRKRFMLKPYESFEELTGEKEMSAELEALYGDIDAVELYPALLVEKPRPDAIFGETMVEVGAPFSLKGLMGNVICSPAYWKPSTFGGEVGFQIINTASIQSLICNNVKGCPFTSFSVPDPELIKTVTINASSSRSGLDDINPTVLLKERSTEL
Source text: Whole cell assays for COX-2 and COX-1 using CHO transfected cell lines
Chinese hamster ovary (CHO) cell lines which have been stably transfected with an eukaryotic expression vector pCDNAIII containing either the human COX-1 or COX-2 cDNA's are used for the assay. These cell lines are referred to as CHO[hCOX-1] and CHO[hCOX-2], respectively. For cyclooxygenase assays, CHO[hCOX-1] cells from suspension cultures and CHO[hCOX-2] cells prepared by trypsinization of adherent cultures are harvested by centrifugation (300×g, 10 min) and washed once in HBSS containing 15 mM HEPES, pH 7.4, and resuspended in HBSS, 15 mM HEPES, pH 7.4, at a cell concentration of 1.5×10^6 cells/ml. Drugs to be tested are dissolved in DMSO to 66.7-fold the highest test drug concentration. Compounds are typically tested at 8 concentrations in duplicate using serial 3-fold serial dilutions in DMSO of the highest drug concentration. Cells (0.3×10^6 cells in 200 μl) are preincubated with 3 μl of the test drug or DMSO vehicle for 15 min at 37° C. Working solutions of peroxide-free AA (5.5 μM and 110 μM AA for the CHO[hCOX-1] and CHO[COX-2] assays, respectively) are prepared by a 10-fold dilution of a concentrated AA solution in ethanol into HBSS containing 15 mM HEPES, pH 7.4. Cells are then challenged in the presence or absence of drug with the AA/HBSS solution to yield a final concentration of 0.5 μM AA in the CHO[hCOX-1] assay and a final concentration of 10 μM AA in the CHO[hCOX-2] assay. The reaction is terminated by the addition of 10 μl 1N HCl followed by neutralization with 20 μl of 0.5N NaOH. The samples are centrifuged at 300×g at 4° C. for 10 min, and an aliquot of the clarified supernatant is appropriately diluted for the determination of PGE2 levels using an enzyme-linked immunoassay for PGE2 (Correlate PGE2 enzyme immunoassay kit, Assay Designs, Inc.). Cyclooxygenase activity in the absence of test compounds is determined as the difference in PGE2 levels of cells challenged with arachidonic acid versus the PGE2 levels in cells mock-challenged with ethanol vehicle. Inhibition of PGE2 synthesis by test compounds is calculated as a percentage of the activity in the presence of drug versus the activity in the positive control samples.
Compounds of the present invention are inhibitors of cyclooxygenase-2 and are thereby useful in the treatment of cyclooxygenase-2 mediated diseases as enumerated above. The activities of the compounds against cyclooxygenase may be seen in the representative results shown below. In the assay, inhibition is determined by measuring the amount of prostaglandin E2 (PGE2) synthesized in the presence of arachidonic acid, cyclooxygenase-1 or cyclooxygenase-2 and a putative inhibitor. The IC50 values represent the concentration of putative inhibitor required to return PGE2 synthesis to 50% of that obtained as compared to the uninhibited control.

COX-1 = COX-1 (Homo sapiens, UniProt P23219); test: Human whole blood assay, COX-1 (clotting-induced TxB2 production); assay type: cell-based; design: endogenous in cells; host or cells: platelets in fresh human whole blood without anticoagulant; conditions: clotting-induced TxB2, 1 hour at 37° C., read-out: COX-1 (IC50 μM) HWB
Description: Human whole blood provides a protein and cell-rich milieu appropriate for the study of biochemical efficacy of anti-inflammatory compounds such as selective COX-2 inhibitors. […] This is consistent with the observation that COX-2 inhibitors have no effect on PGE2 production in normal blood. These inhibitors are active only after incubation of human whole blood with LPS, which induces COX-2. This assay can be used to evaluate the inhibitory effect of selective COX-2 inhibitors on PGE2 production. As well, platelets in whole blood contain a large amount of the COX-1 enzyme. Immediately following blood clotting, platelets are activated through a thrombin-mediated mechanism. This reaction results in the production of thromboxane B2 (TxB2) via activation of COX-1. Thus, the effect of test compounds on TxB2 levels following blood clotting can be examined and used as an index for COX-1 activity. Therefore, the degree of selectivity by the test compound can be determined by measuring the levels of PGE2 after LPS induction (COX-2) and TxB2 following blood clotting (COX-1) in the same assay.
B. COX-1 (Clotting-induced TxB2 production)
Fresh blood is collected into vacutainers containing no anticoagulants. Aliquots of 500 μL are immediately transferred to siliconized microcentrifuge tubes preloaded with 2 μL of either DMSO or a test compound at final concentrations varying from 10 nM to 30 μM. The tubes are vortexed and incubated at 37° C. for 1 hour to allow blood to clot. At the end of incubation, serum is obtained by centrifugation (12,000×g for 5 min.). A 100 μL aliquot of serum is mixed with 400 μL of methanol for protein precipitation. The supernatant is obtained and is assayed for TxB2 using a enzyme immunoassay kit (Cayman, #519031) according to the manufacturer's instruction.

Chain of COX-1 (P23219 24-599): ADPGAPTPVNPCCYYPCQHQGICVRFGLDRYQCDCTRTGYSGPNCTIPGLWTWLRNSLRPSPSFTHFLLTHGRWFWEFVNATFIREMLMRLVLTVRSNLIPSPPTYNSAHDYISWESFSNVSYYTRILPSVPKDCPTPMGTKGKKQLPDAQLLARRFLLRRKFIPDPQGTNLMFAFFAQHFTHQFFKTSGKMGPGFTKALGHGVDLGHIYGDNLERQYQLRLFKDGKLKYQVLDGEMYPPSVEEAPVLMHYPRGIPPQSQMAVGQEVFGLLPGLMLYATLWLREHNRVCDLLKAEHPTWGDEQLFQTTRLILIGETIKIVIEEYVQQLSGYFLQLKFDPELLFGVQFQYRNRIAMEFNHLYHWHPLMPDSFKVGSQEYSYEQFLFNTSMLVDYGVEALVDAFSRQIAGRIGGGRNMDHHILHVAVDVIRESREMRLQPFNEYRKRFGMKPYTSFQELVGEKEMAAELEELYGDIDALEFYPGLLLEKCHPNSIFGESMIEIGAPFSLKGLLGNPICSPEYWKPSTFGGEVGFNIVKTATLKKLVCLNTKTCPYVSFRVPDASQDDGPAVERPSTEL

## CS(=O)(=O)c1ccc(-c2cc(C(F)F)oc(=O)c2-c2ccccc2)cc1 [Example 5, 6-Difluoromethyl-4-(4-methylsulfonyl)phenyl-3-phenyl-pyran-2-one]
COX-2
  IC50: 0.2 µM

## Cc1cc(-c2ccc(S(C)(=O)=O)cc2)c(-c2cccnc2)c(=O)o1 [Example 9]
COX-2
  IC50: 2.9 µM
COX-1
  IC50: 16 µM

## CC(C)Sc1c(-c2ccc(S(C)(=O)=O)cc2)cc(C(F)(F)F)oc1=O [Example 12, 3-Isopropylthio-4-(4-(methylsulfonyl)phenyl)-6-trifluoromethyl-pyran-2-one]
COX-2
  IC50: 0.06 µM

## Cc1cc(-c2ccc(S(C)(=O)=O)cc2)c(Oc2ccccc2)c(=O)o1 [Example 8, 6-Methyl-4-(4-(methylsulfonyl)phenyl)-3-phenoxy-pyran-2-one]
COX-2
  IC50: 0.2 µM
COX-1
  IC50: 13 µM

## Cc1cc(-c2ccc(S(C)(=O)=O)cc2)c(SC(C)C)c(=O)o1 [Example 10, 3-Isopropylthio-6-methyl-4-(4-(methylsulfonyl)phenyl)-pyran-2-one]
COX-2
  IC50: 0.8 µM

## CS(=O)(=O)c1ccc(-c2ccoc(=O)c2-c2ccccc2)cc1 [Example 1, 4-(4-Methylsulfonyl)phenyl-3-phenyl-pyran-2-one]
COX-2
  IC50: 0.12 µM
COX-1
  IC50: 13 µM

## Cc1cc(-c2ccc(S(C)(=O)=O)cc2)c(-c2ccc(F)cc2)c(=O)o1 [Example 2, 3-(4-Fluorophenyl)-6-methyl-4-(4-methylsulfonyl)phenyl-pyran-2-one]
COX-2
  IC50: 0.4 µM
COX-1
  IC50: 2 µM

## CS(=O)(=O)c1ccc(-c2cc(C(F)(F)F)oc(=O)c2Sc2ccccc2)cc1 [Example 11, 4-(4-(Methylsulfonyl)phenyl)-3-phenylthio-6-trifluoromethyl-pyran-2-one]
COX-2
  IC50: 0.01 µM

## CS(=O)(=O)c1ccc(-c2cc(CF)oc(=O)c2-c2ccccc2)cc1 [Example 6, 6-Fluoromethyl-4-(4-methylsulfonyl)phenyl-3-phenyl-pyran-2-one]
COX-2
  IC50: 1.1 µM

## Cc1cc(-c2ccc(S(C)(=O)=O)cc2)c(CCC(C)(C)O)c(=O)o1 [Example 14, 3-(3-Hydroxy-3-methylbutyl)-6-methyl-4-(4-methylsulfonyl)phenyl-pyran-2-one]
COX-2
  IC50: 2.8 µM

## Cc1cc(-c2ccc(S(C)(=O)=O)cc2)c(Sc2ccccc2)c(=O)o1 [Example 7, 6-Methyl-4-(4-(methylsulfonyl)phenyl)-3-phenylthio-pyran-2-one]
COX-2
  IC50: 0.14 µM
COX-1
  IC50: 16 µM

## Cc1cc(-c2ccc(S(C)(=O)=O)cc2)c(-c2ccccc2)c(=O)o1 [Example 4, 6-Methyl-4-(4-methylsulfonyl)phenyl-3-phenyl-pyran-2-one]
COX-2
  IC50: 0.4 µM
COX-1
  IC50: 6.3 µM

## Cc1cc(-c2ccc(S(C)(=O)=O)cc2)c(-c2cccc(F)c2)c(=O)o1 [Example 3, 3-(3-Fluorophenyl)-6-methyl-4-(4-methylsulfonyl)phenyl-pyran-2-one]
COX-2
  IC50: 0.6 µM
COX-1
  IC50: 6.9 µM
